# In ChEMBL document CHEMBL1201862, “PubChem BioAssay data set” (2004):
#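 Briefly, cells in 96-well plates were exposed to five compound concentrations for 48 h, and endpoints were estimated by linear interpolation. Abbreviation: GI50, concentration required for 50% inhibition of growth.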 The source made the active and inactive calls. Cut-off read from the data, not from the text of the source: active = GI50 up to about 1.1 µM and inactive = higher.
# Key:
# Test in all cases: NCI tumour cell line growth inhibition, 48 h
# [1] = tested on: ACHN
# [2] = tested on: Malme-3M
# [3] = tested on: DMS-114
# [4] = tested on: UACC-257
# [5] = tested on: NCI-H23
# [6] = tested on: 786-0
# [7] = tested on: UACC-62
# [8] = tested on: M14
# [9] = tested on: NCI-H226
# [10] = tested on: OVCAR-4
# [11] = tested on: KM12
# [12] = tested on: CAKI-1
# [13] = tested on: HOP-92
# [14] = tested on: SNB-75
# [15] = tested on: SK-MEL-2
# [16] = tested on: IGROV-1
# [17] = tested on: A549
# [18] = tested on: OVCAR-8
# [19] = tested on: MOLT-4
# [20] = tested on: NCI-H522
# [21] = tested on: SR
# [22] = tested on: U-251
# [23] = tested on: TK-10
# [24] = tested on: SF-539
# [25] = tested on: NCI-H460
# [26] = tested on: XF498
# [27] = tested on: SN12C
# [28] = tested on: HOP-18
# [29] = tested on: HT-29
# [30] = tested on: HCT-15
# [31] = tested on: COLO 205
# [32] = tested on: UO-31
# [33] = tested on: SK-MEL-5
# [34] = tested on: SF-295
# [35] = tested on: CCRF-CEM
# [36] = tested on: RXF 393
# [37] = tested on: LOX IMVI
# [38] = tested on: HL-60
# [39] = tested on: LXFL 529
# [40] = tested on: HOP-62
# [41] = tested on: SK-OV-3
# [42] = tested on: SNB-19
# [43] = tested on: RPMI-8226
# [44] = tested on: M19-MEL
# [45] = tested on: K562
# [46] = tested on: KM-20L2
# [47] = tested on: DMS-273
# [48] = tested on: OVCAR-3
# [49] = tested on: SK-MEL-28
# [50] = tested on: HCT-116
# [51] = tested on: DLD-1
# [52] = tested on: SNB-78
# [53] = tested on: SW-620
# [54] = tested on: SF-268
# [55] = tested on: OVCAR-5
structure (smiles),measurement,setting,value
O=C(c1ccco1)N(C(=S)N1CCN(c2ccccn2)CC1)c1ccccc1,GI50,[1],> 100 µM (inactive)
same,GI50,[2],> 100 µM (inactive)
same,GI50,[3],66.1 µM (inactive)
same,GI50,[4],> 100 µM (inactive)
same,GI50,[5],> 100 µM (inactive)
same,GI50,[6],> 100 µM (inactive)
same,GI50,[7],> 100 µM (inactive)
same,GI50,[8],> 100 µM (inactive)
same,GI50,[9],18.7 µM (inactive)
same,GI50,[10],> 100 µM (inactive)
same,GI50,[11],> 100 µM (inactive)
same,GI50,[12],> 100 µM (inactive)
same,GI50,[13],> 100 µM (inactive)
same,GI50,[14],> 100 µM (inactive)
same,GI50,[15],> 100 µM (inactive)
same,GI50,[16],> 100 µM (inactive)
same,GI50,[17],> 100 µM (inactive)
same,GI50,[18],> 100 µM (inactive)
same,GI50,[19],> 100 µM (inactive)
same,GI50,[20],> 100 µM (inactive)
same,GI50,[21],> 100 µM (inactive)
same,GI50,[22],> 100 µM (inactive)
same,GI50,[23],> 100 µM (inactive)
same,GI50,[24],> 100 µM (inactive)
same,GI50,[25],> 100 µM (inactive)
same,GI50,[26],60.7 µM (inactive)
same,GI50,[27],> 100 µM (inactive)
same,GI50,[28],> 100 µM (inactive)
same,GI50,[29],> 100 µM (inactive)
same,GI50,[30],> 100 µM
same,GI50,[31],> 100 µM (inactive)
same,GI50,[32],88.7 µM (inactive)
same,GI50,[33],> 100 µM (inactive)
same,GI50,[34],> 100 µM (inactive)
same,GI50,[35],> 100 µM (inactive)
same,GI50,[36],> 100 µM (inactive)
same,GI50,[37],> 100 µM (inactive)
same,GI50,[38],> 100 µM (inactive)
same,GI50,[39],> 100 µM (inactive)
same,GI50,[40],> 100 µM (inactive)
same,GI50,[41],> 100 µM (inactive)
same,GI50,[42],> 100 µM (inactive)
same,GI50,[43],> 100 µM (inactive)
same,GI50,[44],> 100 µM (inactive)
same,GI50,[45],> 100 µM (inactive)
same,GI50,[46],> 100 µM (inactive)
same,GI50,[47],> 100 µM (inactive)
same,GI50,[48],> 100 µM (inactive)
same,GI50,[49],> 100 µM (inactive)
same,GI50,[50],> 100 µM (inactive)
same,GI50,[51],> 100 µM (inactive)
same,GI50,[52],> 100 µM (inactive)
same,GI50,[53],> 100 µM (inactive)
same,GI50,[54],> 100 µM (inactive)
same,GI50,[55],> 100 µM (inactive)
